Laboratory results as given in US8053553B2, “Targeting host proteinases as a therapeutic strategy against viral and bacterial pathogens” (Socpra Sciences Sante Et Humaines, priority 2007, dated 2011).
Read-outs that look alike come from different tables or passages of the source. Non-standard residues stand in square brackets, D forms with d. Residues, ends and D or L forms follow the SMILES beside them. Ahx = NCCCCCC(=O)O; Sar = CNCC(=O)O

Biological target: T1, furin (Homo sapiens, UniProt P09958)
T1 construct: made in house; host or cells: Drosophila S2 cells (Invitrogen expression system)
Assay: biochemical
Details: furin, Pyr-RTKR-AMC substrate, read-out: Ki

[1] = optimization of the inhibitory peptides (Table 3)
[2] = alanine scanning mutagenesis of the H5 furin cleavage sequence (Table 2)

T1 sequence (P09958 108-794 limits assumed): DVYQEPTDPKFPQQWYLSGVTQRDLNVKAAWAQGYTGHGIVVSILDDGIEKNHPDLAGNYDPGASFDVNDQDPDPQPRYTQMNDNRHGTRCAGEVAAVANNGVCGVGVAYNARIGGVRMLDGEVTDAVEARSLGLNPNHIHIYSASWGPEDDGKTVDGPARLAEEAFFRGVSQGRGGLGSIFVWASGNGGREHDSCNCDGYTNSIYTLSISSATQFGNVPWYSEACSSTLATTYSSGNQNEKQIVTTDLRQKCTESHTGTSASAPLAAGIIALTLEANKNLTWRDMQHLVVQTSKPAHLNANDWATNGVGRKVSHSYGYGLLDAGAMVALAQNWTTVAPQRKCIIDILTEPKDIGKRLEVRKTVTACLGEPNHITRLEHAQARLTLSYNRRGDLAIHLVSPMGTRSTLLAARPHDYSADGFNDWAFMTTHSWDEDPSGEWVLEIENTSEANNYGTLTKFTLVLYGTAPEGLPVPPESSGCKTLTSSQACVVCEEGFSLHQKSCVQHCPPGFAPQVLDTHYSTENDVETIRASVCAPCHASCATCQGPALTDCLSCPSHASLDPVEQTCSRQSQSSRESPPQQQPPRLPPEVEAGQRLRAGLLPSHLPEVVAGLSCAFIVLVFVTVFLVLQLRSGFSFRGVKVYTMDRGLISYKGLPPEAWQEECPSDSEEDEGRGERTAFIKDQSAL

SMILES | Ki [1] | Ki [2] | further results
C[C@H](NC(=O)[C@H](CCCNC(=N)N)NC(=O)[C@H](CCC(N)=O)NC(=O)[C@@H]1CCCN1C(=O)[C@@H](N)[C@@H](C)O)C(=O)N[C@@H](CCCNC(=N)N)C(=O)N[C@@H](CCCNC(=N)N)C(=O)N[C@@H](CCCNC(=N)N)C(=O)N[C@@H](CCCCN)C(=O)N[C@@H](CCCCN)C(=O)N[C@@H](CCCNC(N)=O)C(=O)NCC(N)=O | > 100 nM |  | 
C[C@H](NC(=O)[C@H](C)NC(=O)[C@H](CCCNC(=N)N)NC(=O)[C@@H]1CCCN1C(=O)[C@@H](N)[C@@H](C)O)C(=O)N[C@@H](CCCNC(=N)N)C(=O)N[C@@H](CCCNC(=N)N)C(=O)N[C@@H](CCCCN)C(=O)N[C@@H](CCCCN)C(=O)N[C@@H](CCCNC(=N)N)C(=O)NCC(N)=O (H-TPRAARRKKRG-NH2) |  | > 100 nM | 
C[C@H](NC(=O)[C@H](CCCNC(=N)N)NC(=O)[C@H](CCC(=O)O)NC(=O)[C@H](CCCNC(=N)N)NC(=O)[C@@H]1CCCN1C(=O)[C@@H](N)[C@@H](C)O)C(=O)N[C@@H](CCCNC(=N)N)C(=O)N[C@@H](CCCCN)C(=O)N[C@@H](CCCCN)C(=O)N[C@@H](CCCNC(=N)N)C(N)=O (H-TPRERARKKR-NH2) |  | > 100 nM | 
C[C@H](NC(=O)[C@H](CCCNC(=N)N)NC(=O)[C@H](CCC(N)=O)NC(=O)[C@@H]1CCCN1C(=O)[C@@H](N)[C@@H](C)O)C(=O)N[C@@H](CCCNC(=N)N)C(=O)N[C@@H](CCCNC(=N)N)C(=O)N[C@@H](CCCNC(=N)N)C(=O)N[C@@H](CCCCN)C(=O)N[C@@H](CCCCN)C(=O)N[C@@H](CCCNC(=N)N)C(=O)NCCCCCC(N)=O (H-TPQRARRRKKR[Ahx]-NH2) | > 100 nM |  | 
C[C@H](N)C(=O)N[C@@H](C)C(=O)N[C@@H](C)C(=O)N[C@@H](CCC(=O)O)C(=O)N[C@@H](CCCNC(=N)N)C(=O)N[C@@H](CCCNC(=N)N)C(=O)N[C@@H](CCCNC(=N)N)C(=O)N[C@@H](CCCCN)C(=O)N[C@@H](CCCCN)C(=O)N[C@@H](CCCNC(=N)N)C(=O)NCC(N)=O (H-AAAERRRKKRG-NH2) |  | > 100 nM | 
CC(C)[C@H](NC(=O)[C@H](CCCNC(=N)N)NC(=O)[C@H](C)NC(=O)[C@H](C)NC(=O)[C@H](CCCNC(=N)N)NC(=O)[C@H](CCCNC(=N)N)NC(=O)[C@H](CCCNC(=N)N)NC(=O)[C@H](CCC(=O)O)NC(=O)[C@H](CCCNC(=N)N)NC(=O)[C@@H]1CCCN1C(=O)[C@@H](N)[C@@H](C)O)C(N)=O (H-TPRERRRAARV-NH2) |  | > 100 nM | 
C[C@H](NC(=O)[C@H](C)NC(=O)[C@H](CCC(=O)O)NC(=O)[C@H](CCCNC(=N)N)NC(=O)[C@@H]1CCCN1C(=O)[C@@H](N)[C@@H](C)O)C(=O)N[C@@H](CCCNC(=N)N)C(=O)N[C@@H](CCCCN)C(=O)N[C@@H](CCCCN)C(=O)N[C@@H](CCCNC(=N)N)C(N)=O (H-TPREAARKKR-NH2) |  | > 100 nM | 
C[C@H](NC(=O)[C@H](CCCNC(=N)N)NC(=O)[C@@H]1CCCN1)C(=O)N[C@@H](CCCNC(=N)N)C(=O)N[C@@H](CCCNC(=N)N)C(=O)N[C@@H](CCCNC(=N)N)C(=O)N[C@@H](CCCCN)C(=O)N[C@@H](CCCCN)C(=O)N[C@@H](CCCNC(=N)N)C(=O)N[C@H](C(N)=O)[C@@H](C)O |  |  | Ki (N-terminal deletions (Example 2, Table 6)): 16.6 nM
C[C@H](NC(=O)[C@H](CCCNC(=N)N)NC(=O)[C@H](CCC(N)=O)NC(=O)[C@@H]1CCCN1C(=O)[C@@H](N)[C@@H](C)O)C(=O)N[C@@H](CCCNC(=N)N)C(=O)N[C@@H](CCCNC(=N)N)C(=O)N[C@@H](CCCNC(=N)N)C(=O)N[C@@H](CCCCN)C(=O)N[C@@H](CCCCN)C(=O)N[C@@H](CCCNC(=N)N)C(=O)N[C@H](CCCCN)C(N)=O (H-TPQRARRRKKR[dK]-NH2) | > 100 nM |  | 
C[C@H](NC(=O)[C@H](CCC(=O)O)NC(=O)[C@H](CCCNC(=N)N)NC(=O)[C@@H]1CCCN1C(=O)[C@@H](N)[C@@H](C)O)C(=O)N[C@@H](CCCNC(=N)N)C(=O)N[C@@H](CCCNC(=N)N)C(=O)N[C@@H](CCCCN)C(=O)N[C@@H](CCCCN)C(=O)N[C@@H](CCCNC(=N)N)C(=O)N(C)CC(N)=O (H-TPREARRKKR[Sar]-NH2) |  | > 100 nM | 
C[C@H](NC(=O)[C@H](CCCCN)NC(=O)[C@H](CCCCN)NC(=O)[C@H](CCCNC(=N)N)NC(=O)[C@H](CCCNC(=N)N)NC(=O)[C@H](CCCNC(=N)N)NC(=O)[C@H](CCC(=O)O)NC(=O)[C@H](CCCNC(=N)N)NC(=O)[C@@H]1CCCN1C(=O)[C@@H](N)[C@@H](C)O)C(N)=O (H-TPRERRRKKA-NH2) |  | > 100 nM | 
C[C@@H](O)[C@H](N)C(=O)N1CCC[C@H]1C(=O)N[C@@H](CCC(N)=O)C(=O)N[C@@H](CCCNC(=N)N)C(=O)N1CCC[C@H]1C(=O)N[C@@H](CCCNC(=N)N)C(=O)N[C@@H](CCCNC(=N)N)C(=O)N[C@@H](CCCNC(=N)N)C(=O)N[C@@H](CCCCN)C(=O)N[C@@H](CCCCN)C(=O)N[C@@H](CCCNC(=N)N)C(=O)NCC(N)=O (H-TPQRPRRRKKRG-NH2) | > 100 nM |  | 
CC(C)C[C@H](NC(=O)[C@H](CCCNC(=N)N)NC(=O)[C@H](CCC(N)=O)NC(=O)[C@@H]1CCCN1C(=O)[C@@H](N)[C@@H](C)O)C(=O)N[C@@H](CCCNC(=N)N)C(=O)N[C@@H](CCCNC(=N)N)C(=O)N[C@@H](CCCNC(=N)N)C(=O)N[C@@H](CCCCN)C(=O)N[C@@H](CCCCN)C(=O)N[C@@H](CCCNC(=N)N)C(=O)NCC(N)=O | > 100 nM |  | 
C[C@H](NC(=O)[C@@H](N)[C@@H](C)O)C(=O)N[C@@H](CCCNC(=N)N)C(=O)N[C@@H](CCC(=O)O)C(=O)N[C@@H](CCCNC(=N)N)C(=O)N[C@@H](CCCNC(=N)N)C(=O)N[C@@H](CCCNC(=N)N)C(=O)N[C@@H](CCCCN)C(=O)N[C@@H](CCCCN)C(=O)N[C@@H](CCCNC(=N)N)C(=O)N[C@@H](CO)C(N)=O (H-TARERRRKKRS-NH2) |  | > 100 nM | 
CC[C@H](NC(=O)[C@H](CCCNC(=N)N)NC(=O)[C@H](CCC(N)=O)NC(=O)[C@@H]1CCCN1C(=O)[C@@H](N)[C@@H](C)O)C(=O)N[C@@H](CCCNC(=N)N)C(=O)N[C@@H](CCCNC(=N)N)C(=O)N[C@@H](CCCNC(=N)N)C(=O)N[C@@H](CCCCN)C(=O)N[C@@H](CCCCN)C(=O)N[C@@H](CCCNC(=N)N)C(=O)NCC(N)=O [TPQR8RRRKKRG] | > 100 nM |  | 
CC(C)[C@H](NC(=O)[C@H](CCCNC(=N)N)NC(=O)[C@H](CCCCN)NC(=O)[C@H](CCCCN)NC(=O)[C@H](CCCNC(=N)N)NC(=O)[C@H](C)NC(=O)[C@H](C)NC(=O)[C@H](CCC(=O)O)NC(=O)[C@H](CCCNC(=N)N)NC(=O)[C@@H]1CCCN1C(=O)[C@@H](N)[C@@H](C)O)C(N)=O (H-TPREAARKKRV-NH2) |  | > 100 nM | 
C[C@H](NC(=O)[C@@H](N)[C@@H](C)O)C(=O)N[C@@H](CCCNC(=N)N)C(=O)N[C@@H](CCC(=O)O)C(=O)N[C@@H](CCCNC(=N)N)C(=O)N[C@@H](CCCNC(=N)N)C(=O)N[C@@H](CCCNC(=N)N)C(=O)N[C@@H](CCCCN)C(=O)N[C@@H](CCCCN)C(=O)N[C@@H](CCCNC(=N)N)C(N)=O (H-TARERRRKKR-NH2) |  | > 100 nM | 
C[C@H](NC(=O)[C@H](C)NC(=O)[C@H](CCC(=O)O)NC(=O)[C@H](CCCNC(=N)N)NC(=O)[C@@H]1CCCN1C(=O)[C@@H](N)[C@@H](C)O)C(=O)N[C@@H](CCCNC(=N)N)C(=O)N[C@@H](CCCCN)C(=O)N[C@@H](CCCCN)C(=O)N[C@@H](CCCNC(=N)N)C(=O)N(C)CC(N)=O (H-TPREAARKKR[Sar]-NH2) |  | > 100 nM | 
C[C@@H](O)[C@H](N)C(=O)N1CCC[C@H]1C(=O)N[C@@H](CCC(N)=O)C(=O)N[C@@H](CCCNC(=N)N)C(=O)NCCCCCC(=O)N[C@@H](CCCNC(=N)N)C(=O)N[C@@H](CCCNC(=N)N)C(=O)N[C@@H](CCCNC(=N)N)C(=O)N[C@@H](CCCCN)C(=O)N[C@@H](CCCCN)C(=O)N[C@@H](CCCNC(=N)N)C(=O)NCC(N)=O [TPQR2RRRKKRG] | > 100 nM |  | 
C[C@H](NC(=O)[C@@H]1CCCN1C(=O)[C@@H](N)[C@@H](C)O)C(=O)N[C@@H](CCC(=O)O)C(=O)N[C@@H](CCCNC(=N)N)C(=O)N[C@@H](CCCNC(=N)N)C(=O)N[C@@H](CCCNC(=N)N)C(=O)N[C@@H](CCCCN)C(=O)N[C@@H](CCCCN)C(=O)N[C@@H](CCCNC(=N)N)C(=O)N(C)CC(N)=O (H-TPAERRRKKR[Sar]-NH2) |  | > 100 nM | 
C[C@@H](O)[C@H](N)C(=O)N1CCC[C@H]1C(=O)N[C@@H](CCC(N)=O)C(=O)N[C@@H](CCCNC(=N)N)C(=O)N[C@@H](CCC(N)=O)C(=O)N[C@@H](CCCNC(=N)N)C(=O)N[C@@H](CCCNC(=N)N)C(=O)N[C@@H](CCCNC(=N)N)C(=O)N[C@@H](CCCCN)C(=O)N[C@@H](CCCCN)C(=O)N[C@@H](CCCNC(=N)N)C(=O)NCC(N)=O (H-TPQRQRRRKKRG-NH2) | > 100 nM |  | 
C[C@H](NC(=O)[C@H](C)NC(=O)[C@H](CCCCN)NC(=O)[C@H](CCCNC(=N)N)NC(=O)[C@H](CCCNC(=N)N)NC(=O)[C@H](CCCNC(=N)N)NC(=O)[C@H](CCC(=O)O)NC(=O)[C@H](CCCNC(=N)N)NC(=O)[C@@H]1CCCN1C(=O)[C@@H](N)[C@@H](C)O)C(N)=O (H-TPRERRRKAA-NH2) |  | > 100 nM | 
C[C@H](NC(=O)[C@H](CCCNC(=N)N)NC(=O)[C@H](CCC(N)=O)NC(=O)[C@@H]1CCCN1C(=O)[C@@H](N)[C@@H](C)O)C(=O)N[C@@H](CCCNC(=N)N)C(=O)N[C@@H](CCCNC(=N)N)C(=O)N[C@@H](CCCNC(=N)N)C(=O)N[C@@H](CCCCN)C(=O)N[C@@H](CCCCN)C(=O)N[C@@H](CCCNC(=N)N)C(=O)N[C@@H](CCC(=O)O)C(N)=O (H-TPQRARRRKKRE-NH2) | 103 nM |  | 
C[C@H](NC(=O)[C@H](CCCNC(=N)N)NC(=O)[C@H](CCC(N)=O)NC(=O)[C@@H]1CCCN1C(=O)[C@@H](N)[C@@H](C)O)C(=O)N[C@@H](CCCNC(=N)N)C(=O)N[C@@H](CCCNC(=N)N)C(=O)N[C@@H](CCCNC(=N)N)C(=O)N[C@@H](CCCCN)C(=O)N[C@@H](CCCCN)C(=O)N[C@@H](CCCNC(=N)N)C(=O)N[C@@H](CCC(N)=O)C(N)=O (H-TPQRARRRKKRQ-NH2) | > 100 nM |  | 
C[C@H](NC(=O)[C@H](CCCNC(=N)N)NC(=O)[C@H](CCC(N)=O)NC(=O)[C@@H]1CCCN1C(=O)[C@@H](N)[C@@H](C)O)C(=O)N[C@@H](CCCNC(=N)N)C(=O)N[C@@H](CCCNC(=N)N)C(=O)N[C@@H](CCCNC(=N)N)C(=O)N[C@@H](CCCCN)C(=O)N[C@@H](CCCCN)C(=O)N[C@@H](CCCNC(=N)N)C(=O)N[C@@H](CC(=O)O)C(N)=O (H-TPQRARRRKKRD-NH2) | 50 nM |  | 
